From patent US20210161804A1, “FLUTICASONE AND VILANTEROL FORMULATION AND INHALER” (KINDEVA DRUG DELIVERY L.P., priority 2018, published 2021)

What was measured:
[1] = Through life delivered dose (unit spray collection apparatus); type: physicochemical; conditions: beginning, middle, end of unit, 3 MDIs, 28.3 L/minute
Method: The through life delivered dose was determined using standard unit spray collection apparatus (USCA) fitted with a filter. For each determination, an MDI was attached to the USCA using a coupler. Immediately prior to attachment, the MDI was vigorously shaken. Prior to collection of the test sample, the MDI was primed by actuating four times and before each priming actuation the MDI was vigorously shaken. For each example tested, three MDIs were used. Each MDI was tested with a single actuation into the instrument at the beginning, middle, and end of the unit resulting in 3 actuations per MDI (9 actuations total). The flow rate through the equipment was regulated to 28.3 L/minute+/−0.5 L/minute. The test sample deposited in the USCA was collected by rinsing with a known volume of collection solvent. The recovered samples were then analyzed for sample content using an HPLC assay with reference to a known standard. An HPLC instrument with a UV detector (220 nm at 0 minutes, 240 nm at 5 minutes) and a symmetry shield RP18, 150 mm×4.6 mm (3.5 microns) column (temperature 25° C.) was used. The mobile phase was 10 mM SDS (sodium dodecyl sulphate), 60:40 (v/v) acetetonitrile:50 mM NH4OAc (ammonium acetate), pH 5.50. The injection volume was 50 microliters and the flow rate was 1.0 mL/minute.

[2] = Next Generation Impactor (NGI) aerodynamic particle size distribution; type: physicochemical
Method: The aerodynamic particle size distribution emitted from each MDI was evaluated using a Next Generation Impactor Instrument (MSP Corporation, Shoreview, Minn.). For each test, an MDI was attached to the throat component (Emmace anatomical throat, Emmace Consulting, Lund, Sweden) of the NGI instrument and actuated 6 times into the instrument. Prior to each actuation the MDI was vigorously shaken Immediately prior to attachment, the MDI was primed by actuating 4 times. Prior to each priming shot the MDI was vigorously shaken. The flow rate through the instrument during testing was regulated at 30 L/minute. The test sample (fluticasone furoate and vilanterol trifenatate) deposited on the valve stem, actuator, throat assembly (Emmace anatomical throat), individual uncoated collection cups 1-7, micro-orifice collector (MOC), and final filter component was collected by rinsing each individual component with a known volume of collection solvent. The recovered samples were then analyzed for sample content using an HPLC assay with reference to a known standard. An HPLC instrument with a UV detector (220 nm at 0 minutes, 240 nm at 5 minutes) and a symmetry shield RP-18, 4.6-150 mm column (25° C. column temp) was used. The mobile phase was 10 mM SDS, 60:40 (v/v) […]:50 mM NH4OAc, pH 5.5). The injection volume was 50 microliters and the flow rate was 1.0 mL/min.
In Table 1 the fine particle mass (FPM), impactor sized mass (ISM), mass median aerodynamic diameter (MMAD), and throat hold up data for fluticasone furoate (FF) and vilanterol trifenatate (VT) is presented. At each time point 3 individual MDIs were tested and the result is presented as the mean value.
Total Ex-valve content was determined as the sum of the sample content from all twelve analyzed components (valve stem through filter) (reported as micrograms/actuation).
Throat hold up was determined as the ratio of the sample content from the throat assembly divided by the total ex-valve content.
Aerodynamic particle size from a Relvar® Ellipta® 92/22 (fluticasone furoate/vilanterol trifenatate) dry powder inhaler was evaluated as described above for NGI studies with the following changes. The Relvar device was not primed prior to analysis, nor was it shaken prior to actuation. For each test the Relvar was actuated once. An adaptor was prepared and used to obtain a good fit between device mouthpiece and the Emmace throat. A flow rate of approximately 80 L/min was used to achieve a 4 kPa pressure drop in the NGI. A pre-separator was used between the throat assembly and cup 1. Cups 1 to 7 were pre-coated with 50:50 (v/v) glycerol:methanol.
In tables 1-8 above, FPM and ISM are reported as micrograms (mcg) per actuation and MMAD is reported in microns (um). FPM (Fine Particle Mass) was determined as the sum of the sample content determined for cups 3-7, the MOC, and the filter. ISM (Impactor Sized Mass) was determined as the sum of the sample content determined for cups 2-7, the MOC, and the filter. In the examples, the concentrations of fluticasone furoate, vilanterol trifenatate, ethanol, and HFA-227 in the suspension formulations are reported as weight percent (wt. %).

[3] = MDIs of Example 8 (58 microliter primeless valve, no ethanol, HFA-227)
[4] = MDIs of Example 9 (58 microliter primeless valve, 0.05% ethanol, HFA-227)
[5] = MDIs of Example 10 (58 microliter primeless valve, 0.5% ethanol, HFA-227)
[6] = Comparative Example 1: Relvar Ellipta 92/22 dry powder inhaler, actuated once, approximately 80 L/min (4 kPa), pre-separator
[7] = Comparative Example 1: Relvar Ellipta 92/22 dry powder inhaler, approximately 80 L/min (4 kPa), pre-separator
[8] = MDI of Example 1: FF MMD about 3.7 microns, VT MMD about 1.4 microns, HFA-227, 30 L/minute
[9] = MDI of Example 1: FF MMD about 3.7 microns, VT MMD about 1.4 microns, HFA-227, 30 L/minute, Emmace anatomical throat
[10] = MDI of Example 1: FF MMD about 3.7 microns, VT MMD about 1.4 microns, HFA-227, per actuation, 30 L/minute
[11] = MDI of Example 1: FF MMD about 3.7 microns, VT MMD about 1.4 microns, HFA-227, per actuation, 30 L/minute, mean of 3 MDIs
[12] = MDI of Example 2: FF MMD about 2.9 microns, VT MMD about 1.4 microns, HFA-227, 30 L/minute
[13] = MDI of Example 2: FF MMD about 2.9 microns, VT MMD about 1.4 microns, HFA-227, per actuation, 30 L/minute
[14] = MDI of Example 3: FF MMD about 3.7 microns, VT MMD about 4.2 microns, HFA-227, 30 L/minute
[15] = MDI of Example 3: FF MMD about 3.7 microns, VT MMD about 4.2 microns, HFA-227, per actuation, 30 L/minute
[16] = MDI of Example 4: FF MMD about 2.9 microns, VT MMD about 3.4 microns, HFA-227, 30 L/minute
[17] = MDI of Example 4: FF MMD about 2.9 microns, VT MMD about 3.4 microns, HFA-227, per actuation, 30 L/minute
[18] = MDI of Example 5: FF micronized MMD about 2.0 microns, VT high pressure homogenized MMD about 1.4 microns, HFA-227, 30 L/minute
[19] = MDI of Example 5: FF micronized MMD about 2.0 microns, VT high pressure homogenized MMD about 1.4 microns, HFA-227, per actuation, 30 L/minute
[20] = MDI of Example 6: FF MMD about 2.9 microns, VT MMD about 1.4 microns, 0.05% ethanol, HFA-227, 30 L/minute
[21] = MDI of Example 6: FF MMD about 2.9 microns, VT MMD about 1.4 microns, 0.05% ethanol, HFA-227, per actuation, 30 L/minute
[22] = MDI of Example 7: FF MMD about 2.9 microns, VT MMD about 1.4 microns, 0.5% ethanol, HFA-227, 30 L/minute
[23] = MDI of Example 7: FF MMD about 2.9 microns, VT MMD about 1.4 microns, 0.5% ethanol, HFA-227, per actuation, 30 L/minute

Row | Compound | mean through life delivered dose [1, 3] [micrograms/actuation] | mean through life delivered dose [1, 4] [micrograms/actuation] | mean through life delivered dose [1, 5] [micrograms/actuation] | FPM (fine particle mass) [2, 6] [µg] | ISM (impactor sized mass) [2, 6] [µg] | MMAD (mass median aerodynamic diameter) [2, 7] [um] | Throat hold up [2, 7] [%] | MMAD (mass median aerodynamic diameter) [2, 8] [um] | Throat hold up [2, 9] [%] | ISM (impactor sized mass) [2, 10] [µg] | FPM (fine particle mass) [2, 11] [µg] | MMAD (mass median aerodynamic diameter) [2, 12] [um] | Throat hold up [2, 12] [%] | FPM (fine particle mass) [2, 13] [µg] | ISM (impactor sized mass) [2, 13] [µg] | MMAD (mass median aerodynamic diameter) [2, 14] [um] | Throat hold up [2, 14] [%] | FPM (fine particle mass) [2, 15] [µg] | ISM (impactor sized mass) [2, 15] [µg] | MMAD (mass median aerodynamic diameter) [2, 16] [um] | other results
1 | C[C@@H]1C[C@H]2[C@@H]3C[C@H](F)C4=CC(=O)C=C[C@]4(C)[C@@]3(F)[C@@H](O)C[C@]2(C)[C@@]1(OC(=O)c1ccco1)C(=O)SCF [FF, fluticasone furoate] | 57.1 | 55.5 | 58.0 | 26.5 | 31.5 | 3.4 | 26.0 | 3.5 | 52.8 | 27.7 | 19.6 | 3.1 | 38.8 | 27.0 | 35.9 | 4.0 | 47.0 | 25.0 | 37.5 | 3.2 | Throat hold up [2, 16]: 43.0%; FPM (fine particle mass) [2, 17]: 28.5 µg; ISM (impactor sized mass) [2, 17]: 38.4 µg; MMAD (mass median aerodynamic diameter) [2, 18]: 2.9 um; Throat hold up [2, 18]: 31.5%; FPM (fine particle mass) [2, 19]: 30.2 µg; ISM (impactor sized mass) [2, 19]: 35.7 µg; MMAD (mass median aerodynamic diameter) [2, 20]: 3.2 um; Throat hold up [2, 20]: 48.6%; FPM (fine particle mass) [2, 21]: 23.1 µg; ISM (impactor sized mass) [2, 21]: 31.5 µg; MMAD (mass median aerodynamic diameter) [2, 22]: 3.0 um; Throat hold up [2, 22]: 46.0%; FPM (fine particle mass) [2, 23]: 26.3 µg; ISM (impactor sized mass) [2, 23]: 34.9 µg
2 | OCc1cc([C@@H](O)CNCCCCCCOCCOCc2c(Cl)cccc2Cl)ccc1O [VT, vilanterol trifenatate] | 13.8 | 13.3 | 14.4 | 11.6 | 12.3 | 1.8 | 16.1 | 1.9 | 34.0 | 10.8 | 10.0 | 2.0 | 28.5 | 9.9 | 10.8 | 3.7 | 43.4 | 6.5 | 8.9 | 3.1 | Throat hold up [2, 16]: 41.0%; FPM (fine particle mass) [2, 17]: 7.5 µg; ISM (impactor sized mass) [2, 17]: 9.8 µg; MMAD (mass median aerodynamic diameter) [2, 18]: 2.6 um; Throat hold up [2, 18]: 31.1%; FPM (fine particle mass) [2, 19]: 8.4 µg; ISM (impactor sized mass) [2, 19]: 9.5 µg; MMAD (mass median aerodynamic diameter) [2, 20]: 2.0 um; Throat hold up [2, 20]: 37.8%; FPM (fine particle mass) [2, 21]: 8.9 µg; ISM (impactor sized mass) [2, 21]: 9.9 µg; MMAD (mass median aerodynamic diameter) [2, 22]: 2.0 um; Throat hold up [2, 22]: 36.1%; FPM (fine particle mass) [2, 23]: 10.3 µg; ISM (impactor sized mass) [2, 23]: 11.2 µg
